According to patent US11638427B2, “Methods and compositions for altering secondary metabolites in plants” (Impello Biosciences, Inc, priority 2020, dated 2023):

Tests used:
[1] = test system: oyster mushroom; test: Fungal plug growth on jasmonate-infused PDA plates; type: cell-based; settings: all concentrations (1 mM, 4.25 mM, 10 mM) in PDA; 72 hours and 10 days
Description: MDJ (TCI, CAS No.: 24851-98-7) and CJ were infused into potato dextrose agar (PDA, VWR Cat No.: 90003-494) petri dishes (100×15 mm VWR, Cat No: 25384-094) at concentrations ranging from 1 mM, 4.25 mM, and 10 mM. Each treatment was prepared using a technical grade stock solution of pure chemical (CJ or MDJ) diluted with TWEEN®-20 (VWR, CAS No.: […]). Culturable oyster mushroom and seedling mold served to create fungal mycelial plugs using a sterile 1 mL pipette tip (Eppendorf, Cat No.: 022491458) held upside down. The tips were used to make circle excisions (i.e., fungal plugs) from a mycelial mat grown on PDA with no biochemical infusions. Fungal pugs were then transferred to PDA infused with varying concentrations of CJ or MDJ, and control plates (no CJ or MDJ infusion) to monitor fungal growth at room temperature over time.

[2] = test system: hemp varietal 'Bialobreszkie'; test: MeJA foliar spray on fiber hemp, non-targeted metabolomic analysis (UPLC-MS, GC-MS); type: in vivo, Cannabis spp.
Description: The efficacy and effectiveness of an eliciting composition and methods of use to alter secondary metabolite production were tested in a controlled environment with a commercial certified hemp varietal ‘Bialobreszkie’ (Bija Hemp, Denver, Colo., USA). […] This is in comparison with high metabolite-producing hemp varieties that typically yield greater than 10% by weight total cannabinoids.
A non-targeted semi-quantitative metabolomic analysis was conducted to provide relative values for each detected analyte (i.e., compound) rather than absolute quantification, but with much greater detection limits than typical quantitative analysis provides. Additionally, the non-targeted nature allows essentially every compound that is present in the sample to be recorded and scored relative, providing a picture of the effect that each treatment has on the entire metabolome of the plant rather than only a snapshot of a few metabolites.
One hundred and forty-four (144) ‘Bialobreszkie’ variety hemp seeds were surface sterilized in a 2% NaOCI solution for 5 minutes and primed for 12 hours in a 1:30 aqueous solution of TRIBUS® Original (a commercial plant growth promoting bacterial consortia) contained in a 50 mL centrifuge tube and placed on an orbital shaker at 80 rpm, then hand sewn into two 72-cell trays filled with commercial coco coir (Canna Gardening, NL). Of the 144 seeds, 112 germinated well and were selected for use in the trial. After two weeks of development in seedling trays, all 112 plants were transplanted into 4” square plastic pots filled with pure coco coir media and watered-in with a 4-20-39 fertilizer supplemented with calcium nitrate, magnesium sulfate, and TRIBUS® beneficial bacteria at a standardized rate. At the time of transplant, all plants were transitioned into the flowering stage by manipulating the photoperiod to a 12-hour light/12-hour dark schedule per 24-hour day.
Plants were transplanted successively without regard to their size or physical attributes on Apr. 20, 2019. The square pots were arranged in an […] grid on a 4′×8′ black plastic bench under two×1000-watt DE-HPS lamps (Gavita International BV). Each pot was numbered in numerical order, row by row. After all plants/pots were labelled, a research randomizer tool (randomizer.org) was used to randomly generate 8 groups with 14 unique numbers in each group, ranging from 1-112.
Treatment groups differed only in the frequency and timing of applications. Chemical composition of the elicitor formula remained identical between all treatment groups and consisted of a 7.5 mM methyljasmonate (MeJA, technical grade, TCI America) active ingredient applied in an aqueous spray consisting of reverse-osmosis purified water, supplemented only with 0.1% v/v polysorbate-20 (TWEEN®-20, reagent grade, VWR) as an emulsifier to support oil-in-water stability. […] Treatment groups were defined as follows: […]
All plants receiving treatments were sprayed-to-drip with each application to ensure sufficient coverage. Treatments were made to all treatment plants during daylight hours but out of direct light. Plants were temporarily removed from the growing bench for treatment applications in order to prevent overspray of the treatment onto other plants in the experiment. In such instances, plants were returned to the growing bench immediately after the foliage had dried. Plants were cultivated under identical and typical growing conditions for 47 days, then whole plants were harvested successively and within one hour of each other, labeled with their corresponding plant number, and hung upside down in a well-ventilated room and allowed to dry. Loss of samples occurred either from plants dying during the experiment or insufficient flower set. All other plants in the experiment were approximately the same size and had similar numbers and size of flowers.
Each of the 8 groups (7 treatment and 1 control) began the trial with 14 plants. 109 of 112 samples were run in the assay. […]

[3] = 7.5 mM foliar spray, of the 597

Row | Structure (SMILES) | Oyster mushroom fungal growth compared to control [1] | non-volatile hemp metabolome compared to the Control group (UPLC-MS) ([2]; 7.5 mM applied every 7, 14 or 28 days, or only once 72 hours prior to harvest) | endogenous levels of jasmonate derivatives ([2]; 7.5 mM exogenous foliar application) | significantly altered compounds not annotated [2, 3] | significantly altered compounds putatively of superclass Alkaloids and derivatives [2, 3] | significantly altered compounds putatively of superclass Benzenoids [2, 3] | significantly altered compounds putatively of superclass Lipid or Lipid like [2, 3] | significantly altered compounds putatively of superclass Organic acids and derivatives [2, 3] | significantly altered compounds putatively of superclass Organic nitrogen compounds [2, 3] | significantly altered compounds putatively of superclass Organic oxygen compounds [2, 3] | significantly altered compounds putatively of superclass Organoheterocyclic compounds [2, 3] | significantly altered compounds putatively of superclass Phenylpropanoids and polyketides [2, 3] | non-volatile compounds significantly (p<0.05) altered by one or more treatment groups ([2]; 7.5 mM foliar spray, of the 2,000+ compounds detected via UPLC-TOF) | analytes with significantly altered relative abundance compared to the control group ([2]; Treatment 1: 7.5 mM, one application every 7 days from first day of flowering) | analytes with significantly altered relative abundance compared to the control group ([2]; Treatment 2: 7.5 mM, one application every 14 days from first day of flowering) | analytes with significantly altered relative abundance compared to the control group ([2]; Treatment 3: 7.5 mM, one application every 28 days from first day of flowering) | analytes with significantly altered relative abundance compared to the control group ([2]; Treatment 4: 7.5 mM, only one application on the first day of flowering) | analytes with significantly altered relative abundance compared to the control group ([2]; Treatment 5: 7.5 mM, only one application on the 30th day of flowering) | analytes with significantly altered relative abundance compared to the control group ([2]; Treatment 6: 7.5 mM, only one application 72 hours prior to harvest) | analytes with significantly altered relative abundance compared to the control group ([2]; Treatment 7: 7.5 mM, only one application 24 hours prior to harvest)
1 | CCCCCC1C(=O)CCC1CC(=O)OC (centres unmarked) [MDJ, methyl dihydrojasmonate] | showed inhibition |  |  |  |  |  |  |  |  |  |  |  |  |  |  |  |  |  |  | 
2 | CC/C=C\C[C@H]1C(=O)CC[C@@H]1CC(=O)OC [MeJA, Methyl Jasmonate] |  | substantially altered | increase endogenous levels of numerous jasmonate derivaties | 466 | 5 | 5 | 78 | 1 | 1 | 9 | 10 | 14 | 597 | 551 | 497 | 41 | did not significantly altered the relative abundance of any analytes | 4 | 399 | 216
